We go through six compounds from patent publication US9669025B2 (INFLAMMATORY RESPONSE RESEARCH, INC., priority 2013, dated 2017).

The subject of one data set is Henoch Schonlein Purpura. Description: Example 2 case study: person with Henoch Schonlein Purpura. In kind it is in vivo, human. To be noted: before the combination; ibuprofen and diphenhydramine. The source says:
Case Study: person with Henoch Schonlein Purpura The patient is a person originally seen and evaluated in London, England, Feb. […] […] The ibuprofen and diphenhydramine were discontinued.

A further data set relates to human rhinovirus. To be noted: airway epithelial cells; cited from earlier work.
The next data set deals with eosinophil migration. To be noted: cited from earlier work.
The subject of another data set is IL-4, IL-6, and IL-8. The conditions noted are these: cited from earlier work.
The test system of data set [1] is histamine induced wheal and flare. To be noted: cited from earlier work.
For data set [2] the following is noted: cited from earlier work.
The conditions of data set [3]: in vivo; cited from earlier work.
The next data set addresses H1 receptor (Homo sapiens, UniProt P35367). To be noted: acidic pH (inflamed tissue), relative to first generation molecules, cited from earlier work.
For data set [4] the following is noted: cited from earlier work. The source holds these as a separate data set.
The conditions of data set [5]: cited from earlier work; for time to steady state level: montelukast.
The conditions of data set [6]: with warfarin, theophylline, digoxin, terfenadine, oral contraceptives, or prednisone; cited from earlier work.
The next data set deals with influenza. The conditions noted are these: 2009 H1N1 pandemic; cited from earlier work.
Data set [7] deals with Churg-Strauss Syndrome (eosinophilic vasculitis). Description: Example 1 case study: person with Churg-Strauss Syndrome. In kind it is in vivo, human. To be noted: 2010, patient history.

Where two headings read alike, the source gives them in different places.

H1 receptor, sequence (P35367 whole entry): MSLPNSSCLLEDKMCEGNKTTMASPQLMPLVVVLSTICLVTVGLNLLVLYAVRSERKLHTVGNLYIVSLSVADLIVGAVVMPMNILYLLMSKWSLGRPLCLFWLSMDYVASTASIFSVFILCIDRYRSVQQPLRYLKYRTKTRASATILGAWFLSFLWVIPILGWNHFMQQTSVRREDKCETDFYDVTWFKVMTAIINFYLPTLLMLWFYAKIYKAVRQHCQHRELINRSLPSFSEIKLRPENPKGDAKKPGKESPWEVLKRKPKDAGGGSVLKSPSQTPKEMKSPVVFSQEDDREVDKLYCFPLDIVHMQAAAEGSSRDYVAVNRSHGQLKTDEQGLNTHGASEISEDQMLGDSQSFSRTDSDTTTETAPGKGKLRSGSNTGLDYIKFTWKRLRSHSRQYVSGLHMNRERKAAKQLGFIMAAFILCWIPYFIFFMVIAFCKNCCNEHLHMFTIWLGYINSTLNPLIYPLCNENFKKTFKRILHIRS

Turning to `CN(C)CCOC(c1ccccc1)c1ccccc1` [diphenhydramine], the “response of recurrent Henoch Schonlein Purpura” value in the data set with Henoch Schonlein Purpura is recorded as “poorly responsive”.
Still for that read-out and setting: then `CC(C)Cc1ccc(C(C)C(=O)O)cc1` (centres unmarked) [ibuprofen], with “poorly responsive”.
With `O=C(O)COCCN1CCN([C@H](c2ccccc2)c2ccc(Cl)cc2)CC1` [levocetirizine], in the data set with human rhinovirus, the “rhinovirus-induced ICAM-1 and cytokine expression and viral replication” value was “inhibits”. Besides, the “eosinophil migration / quantity” value in the data set with eosinophil migration was “decrease”. In addition, the “inflammatory mediators, IL-4, IL-6, and IL-8” value in the data set on IL-4, IL-6, and IL-8 is reported as “decrease”. The “potency among the five modern generation antihistamines” value in [1] (histamine induced wheal and flare data) is on record as “most potent”. The effectiveness versus fexofenadine entry in [1] (levocetirizine 5 mg per day vs fexofenadine 180 mg per day) is recorded as “more effective than fexofenadine”. For the same compound, the “principal side effect at higher doses” value in data set [2] (higher doses) is given as “Sedation”. For the same compound, the “doses safely administered in humans” value in data set [2] (human dosing safety studies) is listed as “up to 30 mg/day”. The “time to steady state level” value in [3] was 40 h. Besides, the entries for the “enhanced receptor affinity over first generation mepyramine” value on H1 receptor and on H1 receptor (listed as Levocetirizine) were “up to 5 ×” and 5 ×, respectively.
For `CC(C)(O)c1ccccc1CC[C@@H](SCC1(CC(=O)O)CC1)c1cccc(/C=C/c2ccc3ccc(Cl)cc3n2)c1` [montelukast], the “doses administered without clinically important adverse experiences” value was “up to 200 mg/day” in data set [4] (adult patients for 22 weeks) and “up to 900 mg/day” in data set [4] (short-term studies, patients for approximately one week). Also, the “IV plasma concentration area under the curve profile versus oral tablet” value in [5] (IV 7 mg vs approved 10 mg oral tablet) is recorded as “comparable”. In addition, in [5] (in vivo), the linearity of pharmacokinetics result was “linear pharmacokinetics to 50 mg”. The “time to peak plasma concentration” value in [5] (in vivo) is 3 to 4 h. Also, the “time to steady state level” value in data set [5] is listed as “within two days”; in [5] (listed as Montelukast) it was “less than two days”. Further, in data set [5] (standard meal), the “effect of a standard meal on oral bioavailability and Cmax” value is on record as “not affected”. The drug interactions entry in [6] is recorded as “no drug interactions”.
As for `CCOC(=O)C1=C[C@@H](OC(CC)CC)[C@H](NC(C)=O)[C@@H](N)C1` [oseltamivir], the “influenza related lower respiratory tract complications” value in the data set with influenza is “did not appear to reduce”.
Regarding omalizumab, in data set [7], the “trial for severe asthma” value was “Unsuccessful”.
